Source: patent US20260092071A1, “COMPOUNDS AND COMPOSITIONS AS SMARCA2/4 DEGRADERS AND USES THEREOF” (REGENTS OF THE UNIVERSITY OF MICHIGAN, priority 2022, published 2026)

Legend:
SMARCA2 = SMARCA2 (Homo sapiens, UniProt P51531); assay: HiBit assay in engineered HT1080 CRISPR knock-in cell, 6 hrs (B series), SMARCA2; type: cell-based; settings: 6 hrs incubation; for DC50: HT1080 CRISPR knock-in cells, read-out: SMARC A2 HT1080 HiBit DC50; for Dmax: HT-1080, HT1080 CRISPR knock-in cells, read-out: SMARC A2 HT1080 HiBit Dmax (%)
Chain of SMARCA2 (P51531 whole entry): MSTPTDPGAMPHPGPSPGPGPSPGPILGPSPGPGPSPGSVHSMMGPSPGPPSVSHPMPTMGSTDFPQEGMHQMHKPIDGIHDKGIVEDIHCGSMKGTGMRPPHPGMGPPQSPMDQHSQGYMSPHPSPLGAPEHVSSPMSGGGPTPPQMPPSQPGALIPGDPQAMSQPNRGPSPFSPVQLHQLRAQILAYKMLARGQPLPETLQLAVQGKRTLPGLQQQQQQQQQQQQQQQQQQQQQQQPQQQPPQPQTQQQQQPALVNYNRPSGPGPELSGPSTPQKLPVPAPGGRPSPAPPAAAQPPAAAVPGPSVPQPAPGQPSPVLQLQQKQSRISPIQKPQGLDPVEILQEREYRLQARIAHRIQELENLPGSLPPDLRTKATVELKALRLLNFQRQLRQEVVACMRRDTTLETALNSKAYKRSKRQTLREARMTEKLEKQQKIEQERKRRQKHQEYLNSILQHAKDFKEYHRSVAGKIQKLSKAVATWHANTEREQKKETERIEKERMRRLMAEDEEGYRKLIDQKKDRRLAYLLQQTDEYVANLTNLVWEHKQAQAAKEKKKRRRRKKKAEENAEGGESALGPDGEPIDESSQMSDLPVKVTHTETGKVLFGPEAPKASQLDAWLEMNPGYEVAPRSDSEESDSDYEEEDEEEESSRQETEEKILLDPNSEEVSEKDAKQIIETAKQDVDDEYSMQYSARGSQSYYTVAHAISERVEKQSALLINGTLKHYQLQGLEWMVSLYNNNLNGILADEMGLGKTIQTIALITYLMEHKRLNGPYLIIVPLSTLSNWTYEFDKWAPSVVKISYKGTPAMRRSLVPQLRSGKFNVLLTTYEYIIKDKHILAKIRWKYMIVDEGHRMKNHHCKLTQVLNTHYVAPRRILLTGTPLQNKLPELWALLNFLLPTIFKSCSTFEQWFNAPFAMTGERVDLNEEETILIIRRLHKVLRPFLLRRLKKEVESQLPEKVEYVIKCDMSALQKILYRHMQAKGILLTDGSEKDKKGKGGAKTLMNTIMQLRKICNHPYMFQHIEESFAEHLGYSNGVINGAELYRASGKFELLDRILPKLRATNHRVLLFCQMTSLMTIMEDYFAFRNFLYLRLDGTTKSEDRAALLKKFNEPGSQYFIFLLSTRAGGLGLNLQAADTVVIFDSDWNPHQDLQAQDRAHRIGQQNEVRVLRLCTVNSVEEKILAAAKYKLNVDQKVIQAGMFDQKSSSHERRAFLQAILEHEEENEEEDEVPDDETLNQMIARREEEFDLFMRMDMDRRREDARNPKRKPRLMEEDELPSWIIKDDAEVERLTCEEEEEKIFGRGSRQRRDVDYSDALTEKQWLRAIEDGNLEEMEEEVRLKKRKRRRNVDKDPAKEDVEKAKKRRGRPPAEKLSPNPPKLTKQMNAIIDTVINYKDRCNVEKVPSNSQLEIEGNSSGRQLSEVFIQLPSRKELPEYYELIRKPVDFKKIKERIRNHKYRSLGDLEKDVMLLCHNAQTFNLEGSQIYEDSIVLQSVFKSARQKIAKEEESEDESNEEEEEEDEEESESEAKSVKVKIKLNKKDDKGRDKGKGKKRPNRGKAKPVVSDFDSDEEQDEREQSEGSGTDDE
How it was run: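 Engineered HT1080 knock-in cells, 2000 cells/well, 6 hrs compound exposure, 37° C/5% CO2, 0.1% DMSO final. Lytic detection: LgBiT 1:100 plus HiBiT substrate 1:50 in lytic buffer, 10 min shake at RT, luminescence read.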

SMARCA4 = SMARCA4 (Homo sapiens, UniProt P51532); assay: HiBit assay in engineered HT1080 CRISPR knock-in cell, 6 hrs (B series), SMARCA4; type: cell-based; settings: 6 hrs incubation; for DC50: HT1080 CRISPR knock-in cells, read-out: SMARC A4 HT1080 HiBit DC50; for Dmax: HT-1080, HT1080 CRISPR knock-in cells, read-out: SMARC A4 HT1080 HiBit Dmax(%)
Chain of SMARCA4 (P51532 whole entry): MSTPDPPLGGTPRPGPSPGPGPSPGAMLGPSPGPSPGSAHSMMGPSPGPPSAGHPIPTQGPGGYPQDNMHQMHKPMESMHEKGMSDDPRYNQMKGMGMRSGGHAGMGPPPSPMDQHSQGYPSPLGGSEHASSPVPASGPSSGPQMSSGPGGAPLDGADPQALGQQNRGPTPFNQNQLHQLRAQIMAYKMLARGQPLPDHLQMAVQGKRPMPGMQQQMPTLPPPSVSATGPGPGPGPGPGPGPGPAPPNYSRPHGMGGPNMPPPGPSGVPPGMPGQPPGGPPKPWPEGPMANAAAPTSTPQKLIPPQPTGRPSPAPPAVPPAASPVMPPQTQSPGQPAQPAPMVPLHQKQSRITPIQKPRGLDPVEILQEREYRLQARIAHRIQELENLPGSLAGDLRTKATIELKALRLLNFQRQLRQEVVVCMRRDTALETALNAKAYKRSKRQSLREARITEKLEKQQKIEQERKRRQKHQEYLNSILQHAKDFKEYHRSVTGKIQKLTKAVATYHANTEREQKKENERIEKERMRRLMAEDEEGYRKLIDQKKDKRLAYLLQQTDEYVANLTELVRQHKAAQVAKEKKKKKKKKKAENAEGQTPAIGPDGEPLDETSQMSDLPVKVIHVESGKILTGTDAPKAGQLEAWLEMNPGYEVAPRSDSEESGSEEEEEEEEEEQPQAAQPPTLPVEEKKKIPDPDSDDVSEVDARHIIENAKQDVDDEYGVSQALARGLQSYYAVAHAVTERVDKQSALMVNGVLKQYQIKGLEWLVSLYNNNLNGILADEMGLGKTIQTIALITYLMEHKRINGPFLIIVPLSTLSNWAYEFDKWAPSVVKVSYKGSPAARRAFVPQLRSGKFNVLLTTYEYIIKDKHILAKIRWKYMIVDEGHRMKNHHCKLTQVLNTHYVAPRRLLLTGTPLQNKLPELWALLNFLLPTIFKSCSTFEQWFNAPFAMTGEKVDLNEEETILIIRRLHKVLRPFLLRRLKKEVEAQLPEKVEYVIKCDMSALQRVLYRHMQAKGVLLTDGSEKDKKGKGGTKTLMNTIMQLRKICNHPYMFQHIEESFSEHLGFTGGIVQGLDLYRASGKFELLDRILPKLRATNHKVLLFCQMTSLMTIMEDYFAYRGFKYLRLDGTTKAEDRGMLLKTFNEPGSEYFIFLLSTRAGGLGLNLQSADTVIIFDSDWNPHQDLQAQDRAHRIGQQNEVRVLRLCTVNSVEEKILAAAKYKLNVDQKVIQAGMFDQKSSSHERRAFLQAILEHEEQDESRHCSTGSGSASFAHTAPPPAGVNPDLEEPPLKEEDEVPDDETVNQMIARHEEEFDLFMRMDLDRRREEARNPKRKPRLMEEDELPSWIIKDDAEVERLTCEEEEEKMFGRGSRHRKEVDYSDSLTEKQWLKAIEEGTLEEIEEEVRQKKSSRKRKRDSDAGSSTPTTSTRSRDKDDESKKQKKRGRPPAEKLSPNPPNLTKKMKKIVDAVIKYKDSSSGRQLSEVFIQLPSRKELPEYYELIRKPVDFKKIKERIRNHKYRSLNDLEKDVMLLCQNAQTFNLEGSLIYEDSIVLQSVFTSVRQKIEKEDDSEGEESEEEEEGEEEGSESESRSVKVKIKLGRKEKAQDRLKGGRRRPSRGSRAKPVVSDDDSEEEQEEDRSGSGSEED
Method: The HiBit assay was performed using engineered HT1080 CRISPR knock-in cell utilizing the Nano-Glo HiBiT Lytic Detection System from Promega, Cat #N3040. Compounds were transferred, 25 nL DMSO or test compounds (final DMSO @ 0.1%) to intermediate plates (Corning3570) using ECHO550. Cells were seeded onto compounds at 2000 cells/25 μL/well and incubated for 6 hrs in a tissue culture incubator at 37° C. and 5% CO2. The LgBiT Protein was diluted at 1:100 and the Nano-Glo® HiBIT Lytic Substrate 1:50 into an appropriate volume of room temperature using the Nano-Glo® HiBiT Lytic Buffer. At the end of compound incubation time, 15 ul of the detection reagent was added to each well (without LgBiT for negative control wells) using the Thermo Scientific multidrop combi. The plate was shaken for 10 mins at RT using Combi. After briefly centrifugation (2000 rpm 1 mins), plate was read on Envision (Ultrasensitive luminescence model).

SMILES | DC50 (SMARCA2) | Dmax (SMARCA2) | DC50 (SMARCA4) | Dmax (SMARCA4)
Cc1ncsc1-c1ccc([C@H](CCCCCN2CCC(c3ccc4c(c3)-n3c(nc(=O)c5c(Cl)cccc53)C4(C)C)CC2)NC(=O)[C@@H]2C[C@@H](O)CN2C(=O)[C@@H](NC(=O)C2(F)CC2)C(C)(C)C)cc1 [Compound B21, (2S,4R)-N-((S)-6-(4-(4-chloro-7,7-dimethyl-5-oxo-5,7-dihydroindolo[1,2-a]quinazolin-10-yl)piperidin-1-yl)-1-(4-(4-methylthiazol-5-yl)phenyl)hexyl)-1-((S)-2-(1-fluorocyclopropane-1-carboxamido)-3,3-dimethylbutanoyl)-4-hydroxypyrrolidine-2-carboxamide] | < 0.1 µM | > 90% | < 0.1 µM | > 90%
Cc1ncsc1-c1ccc([C@H](CC(=O)N[C@H]2CC[C@H](CN3CCC(c4ccc5c(c4)-n4c(nc(=O)c6c(Cl)cccc64)C5(C)C)CC3)CC2)NC(=O)[C@@H]2C[C@@H](O)CN2C(=O)[C@@H](NC(=O)C2(F)CC2)C(C)(C)C)cc1 [Compound B22, (2S,4R)-N-((S)-3-(((1r,4S)-4-((4-(4-chloro-7,7-dimethyl-5-oxo-5,7-dihydroindolo[1,2-a]quinazolin-10-yl)piperidin-1-yl)methyl)cyclohexyl)amino)-1-(4-(4-methylthiazol-5-yl)phenyl)-3-oxopropyl)-1-((S)-2-(1-fluorocyclopropane-1-carboxamido)-3,3-dimethylbutanoyl)-4-hydroxypyrrolidine-2-carboxamide] | < 0.1 µM | > 90% | 0.1 to 0.5 µM | 50 to 69%
Cc1ncsc1-c1ccc([C@H](C)NC(=O)[C@@H]2C[C@@H](O)CN2C(=O)[C@@H](NC(=O)C23CC(CN4CCC(c5ccc6c(c5)C(C)(C)c5nc(=O)c7c(Cl)cccc7n5-6)CC4)(C2)C3)C(C)(C)C)cc1 [Compound B23, (2S,4R)-1-((S)-2-(3-((4-(4-chloro-7,7-dimethyl-5-oxo-5,7-dihydroindolo[1,2-a]quinazolin-9-yl)piperidin-1-yl)methyl)bicyclo[1.1.1]pentane-1-carboxamido)-3,3-dimethylbutanoyl)-4-hydroxy-N-((S)-1-(4-(4-methylthiazol-5-yl)phenyl)ethyl)pyrrolidine-2-carboxamide] | < 0.1 µM | > 90% | < 0.1 µM | 70 to 90%
Cc1ncsc1-c1ccc([C@H](C)NC(=O)[C@@H]2C[C@@H](O)CN2C(=O)[C@H](C(C)C)n2cc(CCCN3CCC(c4ccc5c(c4)C(C)(C)c4nc(=O)c6c(Cl)cccc6n4-5)CC3)nn2)cc1 [Compound B24, (2S,4R)-1-((S)-2-(4-(3-(4-(4-chloro-7,7-dimethyl-5-oxo-5,7-dihydroindolo[1,2-a]quinazolin-9-yl)piperidin-1-yl)propyl)-1H-1,2,3-triazol-1-yl)-3-methylbutanoyl)-4-hydroxy-N—((S)-1-(4-(4-methylthiazol-5-yl)phenyl)ethyl)pyrrolidine-2-carboxamide] | < 0.1 µM | > 90% | < 0.1 µM | > 90%
Cc1ncsc1-c1ccc([C@H](CC(=O)NCCCN2CCC(c3ccc4c(c3)-n3c(nc(=O)c5c(Cl)cccc53)C4(C)C)CC2)NC(=O)[C@@H]2C[C@@H](O)CN2C(=O)[C@@H](NC(=O)C2(F)CC2)C(C)(C)C)cc1 [Compound B25, (2S,4R)-N-((S)-3-((3-(4-(4-chloro-7,7-dimethyl-5-oxo-5,7-dihydroindolo[1,2-a]quinazolin-10-yl)piperidin-1-yl)propyl)amino)-1-(4-(4-methylthiazol-5-yl)phenyl)-3-oxopropyl)-1-((S)-2-(1-fluorocyclopropane-1-carboxamido)-3,3-dimethylbutanoyl)-4-hydroxypyrrolidine-2-carboxamide] | 0.501 to 1 µM | < 50% | 0.1 to 0.5 µM | < 50%
Cc1ncsc1-c1ccc([C@H](C)NC(=O)[C@@H]2C[C@@H](O)CN2C(=O)[C@@H](c2cc(OCCCN3CCC(c4ccc5c(c4)-n4c(nc(=O)c6c(Cl)cccc64)C5(C)C)CC3)no2)C(C)C)cc1 [Compound B26, (2S,4R)-1-((R)-2-(3-(3-(4-(4-chloro-7,7-dimethyl-5-oxo-5,7-dihydroindolo[1,2-a]quinazolin-10-yl)piperidin-1-yl)propoxy)isoxazol-5-yl)-3-methylbutanoyl)-4-hydroxy-N-((S)-1-(4-(4-methylthiazol-5-yl)phenyl)ethyl)pyrrolidine-2-carboxamide] | < 0.1 µM | > 90% | < 0.1 µM | > 90%
Cc1ncsc1-c1ccc([C@H](C)NC(=O)[C@@H]2C[C@@H](O)CN2C(=O)[C@@H](c2cc(OCCCCN3CCC(c4ccc5c(c4)-n4c(nc(=O)c6c(Cl)cccc64)C5(C)C)CC3)no2)C(C)C)cc1 [Compound B27, (2S,4R)-1-((R)-2-(3-(4-(4-(4-chloro-7,7-dimethyl-5-oxo-5,7-dihydroindolo[1,2-a]quinazolin-10-yl)piperidin-1-yl)butoxy)isoxazol-5-yl)-3-methylbutanoyl)-4-hydroxy-N-((S)-1-(4-(4-methylthiazol-5-yl)phenyl)ethyl)pyrrolidine-2-carboxamide] | < 0.1 µM | > 90% | < 0.1 µM | 70 to 90%
Cc1ncsc1-c1ccc([C@H](C)NC(=O)[C@@H]2C[C@@H](O)CN2C(=O)[C@H](C(C)C)n2cc(CN3CCC(c4ccc5c(c4)C(C)(C)c4nc(=O)c6c(Cl)cccc6n4-5)CC3)nn2)cc1 [Compound B29, (2S,4R)-1-((S)-2-(4-((4-(4-chloro-7,7-dimethyl-5-oxo-5,7-dihydroindolo[1,2-a]quinazolin-9-yl)piperidin-1-yl)methyl)-1H-1,2,3-triazol-1-yl)-3-methylbutanoyl)-4-hydroxy-N—((S)-1-(4-(4-methylthiazol-5-yl)phenyl)ethyl)pyrrolidine-2-carboxamide] | < 0.1 µM | > 90% | < 0.1 µM | > 90%
Cc1ncsc1-c1ccc([C@H](C)NC(=O)[C@@H]2C[C@@H](O)CN2C(=O)[C@@H](c2cc(OC3CCC(CN4CCC(c5ccc6c(c5)C(C)(C)c5nc(=O)c7c(Cl)cccc7n5-6)CC4)CC3)no2)C(C)C)cc1 (stereo partly drawn) [Compound B30, (2S,4R)-1-((R)-2-(3-((4-((4-(4-chloro-7,7-dimethyl-5-oxo-5,7-dihydroindolo[1,2-a]quinazolin-9-yl)piperidin-1-yl)methyl)cyclohexyl)oxy)isoxazol-5-yl)-3-methylbutanoyl)-4-hydroxy-N-((S)-1-(4-(4-methylthiazol-5-yl)phenyl)ethyl)pyrrolidine-2-carboxamide] | < 0.1 µM | > 90% | < 0.1 µM | > 90%
Cc1ncsc1-c1ccc([C@H](CC(=O)NC2CCC(N3CCC(c4ccc5c(c4)-n4c(nc(=O)c6c(Cl)cccc64)C5(C)C)CC3)CC2)NC(=O)[C@@H]2C[C@@H](O)CN2C(=O)[C@@H](NC(=O)C2(F)CC2)C(C)(C)C)cc1 (stereo partly drawn) [Compound B31, (2S,4R)—N—((S)-3-((4-(4-(4-chloro-7,7-dimethyl-5-oxo-5,7-dihydroindolo[1,2-a]quinazolin-10-yl)piperidin-1-yl)cyclohexyl)amino)-1-(4-(4-methylthiazol-5-yl)phenyl)-3-oxopropyl)-1-((S)-2-(1-fluorocyclopropane-1-carboxamido)-3,3-dimethylbutanoyl)-4-hydroxypyrrolidine-2-carboxamide] | 0.1 to 0.5 µM | 70 to 90% | 0.1 to 0.5 µM | < 50%
